Measurements reported in PubChem BioAssay (NCI).
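Step 1: Grow cells in 96-well plates. Step 2: Expose to compound for 48 hours at 5 concentrations. Step 3: Interpolate endpoints linearly; if unreached, use highest concentration. Abbreviation: GI50, concentration required for 50% inhibition of growth. TGI marks complete inhibition of growth.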

Assays:
Experiment in all cases: NCI-60 cell line screen, 48 h
[1] = system: OVCAR-8 ovarian
[2] = system: SF-268 CNS
[3] = system: OVCAR-3 ovarian
[4] = system: UACC-62 melanoma
[5] = system: SR leukemia
[6] = system: K-562 leukemia
[7] = system: NCI-H460 lung
[8] = system: HS 578T breast
[9] = system: IGROV1 ovarian
[10] = system: MDA-MB-231 breast
[11] = system: CAKI-1 renal
[12] = system: NCI-H23 lung
[13] = system: TK-10 renal
[14] = system: HL-60(TB) leukemia
[15] = system: OVCAR-5 ovarian
[16] = system: SK-OV-3 ovarian
[17] = system: MCF7 breast
[18] = system: A549 NSCLC
[19] = system: RXF 393 renal
[20] = system: MALME-3M melanoma
[21] = system: NCI-H522 lung
[22] = system: SF-539 CNS
[23] = system: SK-MEL-2 melanoma
[24] = system: 786-0 renal
[25] = system: EKVX NSCLC
[26] = system: SN12C renal
[27] = system: LOX IMVI melanoma
[28] = system: HCT-116 colon
[29] = system: CCRF-CEM leukemia
[30] = system: UACC-257 melanoma
[31] = system: DU-145 prostate
[32] = system: U251 CNS
[33] = system: SW-620 colon
[34] = system: NCI-H226 lung
[35] = system: HT29 colon
[36] = system: ACHN renal
[37] = system: SK-MEL-28 melanoma
[38] = system: NCI/ADR-RES ovarian
[39] = system: SNB-75 CNS
[40] = system: UO-31 renal
[41] = system: M14 melanoma
[42] = system: COLO 205 colon
[43] = system: SNB-19 CNS
[44] = system: SF-295 CNS
[45] = system: HCC-2998 colon
[46] = system: MOLT-4 leukemia
[47] = system: A498 renal
[48] = system: MDA-MB-468 breast
[49] = system: HCT-15 colon
[50] = system: PC-3 prostate
[51] = system: HOP-62 NSCLC
[52] = system: SK-MEL-5 melanoma
[53] = system: RPMI-8226 leukemia
[54] = system: BT-549 breast
[55] = system: KM12 colon
[56] = system: MDA-MB-435
[57] = system: T-47D breast
[58] = system: OVCAR-4 ovarian
[59] = system: HOP-92 NSCLC

`COc1nc(N)ncc1-c1ccc2ncnc(N3CCc4cc(F)c(Cl)cc43)c2c1` gave a GI50 [1] of 2.33 µM, a TGI [1] of 9.2 µM and a GI50 [2] of 12.3 µM. For the same compound, the TGI [2] was > 100 µM, the GI50 [3] was 2.3 µM and the TGI [3] was 11.2 µM. It also gave a GI50 [4] of 3.92 µM, a TGI [4] of 19.9 µM and a GI50 [5] of 3.09 µM. The TGI [5] was > 100 µM, the GI50 [6] was 6.45 µM and the TGI [6] was > 100 µM. It also gave a GI50 [7] of 2.65 µM, a TGI [7] of 7.97 µM and a GI50 [8] of 2 µM. For the same compound, the TGI [8] was 8.4 µM, the GI50 [9] was 0.594 µM and the TGI [9] was 3.82 µM. For the same compound, the GI50 [10] was 1.84 µM, the TGI [10] was 6.46 µM and the GI50 [11] was 1.2 µM. For the same compound, the TGI [11] was 3.78 µM, the GI50 [12] was 4.26 µM and the TGI [12] was 39.1 µM. The GI50 [13] was 0.703 µM, the TGI [13] was 4.23 µM and the GI50 [14] was 3.08 µM. The TGI [14] was > 100 µM, the GI50 [15] was 3.92 µM and the TGI [15] was > 100 µM. For the same compound, the GI50 [16] was 1.62 µM, the TGI [16] was 4.03 µM and the GI50 [17] was 3.11 µM. For the same compound, the TGI [17] was 22 µM, the GI50 [18] was 2.04 µM and the TGI [18] was 8.55 µM. It also gave a GI50 [19] of 1.5 µM, a TGI [19] of 5.28 µM and a GI50 [20] of 8.68 µM. For the same compound, the TGI [20] was 49.4 µM, the GI50 [21] was 2.3 µM and the TGI [21] was 11.5 µM. The GI50 [22] was 2.96 µM, the TGI [22] was 12.5 µM and the GI50 [23] was > 100 µM. The TGI [23] was > 100 µM, the GI50 [24] was 1.49 µM and the TGI [24] was 3.38 µM. It also gave a GI50 [25] of 1.93 µM, a TGI [25] of 86.2 µM and a GI50 [26] of 1.92 µM. The TGI [26] was 10.1 µM, the GI50 [27] was 3.11 µM and the TGI [27] was 14.8 µM. For the same compound, the GI50 [28] was 2.93 µM, the TGI [28] was 11.3 µM and the GI50 [29] was 26 µM. The TGI [29] was > 100 µM, the GI50 [30] was 8.26 µM and the TGI [30] was 83.6 µM. It also gave a GI50 [31] of 3.82 µM, a TGI [31] of 36.2 µM and a GI50 [32] of 2.3 µM. For the same compound, the TGI [32] was 7.74 µM, the GI50 [33] was 4.26 µM and the TGI [33] was > 100 µM. For the same compound, the GI50 [34] was 1.15 µM, the TGI [34] was 4.21 µM and the GI50 [35] was 7.86 µM. For the same compound, the TGI [35] was 52.2 µM, the GI50 [36] was 1.21 µM and the TGI [36] was 4.22 µM. It also gave a GI50 [37] of 5.2 µM, a TGI [37] of 18.9 µM and a GI50 [38] of 2.73 µM. For the same compound, the TGI [38] was 15.7 µM, the GI50 [39] was 1.47 µM and the TGI [39] was 4.02 µM. It also gave a GI50 [40] of 0.583 µM, a TGI [40] of 3.99 µM and a GI50 [41] of 18.9 µM. For the same compound, the TGI [41] was > 100 µM, the GI50 [42] was 3.37 µM and the TGI [42] was > 100 µM. The GI50 [43] was 2.21 µM, the TGI [43] was 12.2 µM and the GI50 [44] was 2.37 µM. For the same compound, the TGI [44] was 7.58 µM, the GI50 [45] was 2.79 µM and the TGI [45] was 10.1 µM. The GI50 [46] was 11.7 µM, the TGI [46] was > 100 µM and the GI50 [47] was 1.54 µM. The TGI [47] was 5.43 µM, the GI50 [48] was 0.269 µM and the TGI [48] was 1.81 µM. For the same compound, the GI50 [49] was 3.04 µM, the TGI [49] was 24.7 µM and the GI50 [50] was 10.6 µM. The TGI [50] was > 100 µM, the GI50 [51] was 1.47 µM and the TGI [51] was 5.85 µM. For the same compound, the GI50 [52] was 4.15 µM, the TGI [52] was > 100 µM and the GI50 [53] was 3.26 µM. For the same compound, the TGI [53] was > 100 µM, the GI50 [54] was 6.44 µM and the TGI [54] was > 100 µM. The GI50 [55] was 10.4 µM, the TGI [55] was > 100 µM and the GI50 [56] was 6.94 µM. The TGI [56] was > 100 µM, the GI50 [57] was 1.61 µM and the TGI [57] was 7.67 µM. For the same compound, the GI50 [58] was 1.87 µM, the TGI [58] was 4.28 µM and the GI50 [59] was 1.81 µM. It also gave a TGI [59] of 7.23 µM.
